Patent publication US20070276008A1, “Pharmaceutical formulation comprising glycine as a stabilizer” (Eisai Company Limited, priority 1997, published 2007)
Where two headings read alike, the source gives them in different places.

Tests used:
[1] = Reduced glycine concentration experiments: color change in 0.9% saline pH 10; assay type: physicochemical
Description: Absorption measurements were taken at the zero time point, and at 2, 4, 6, and 8 hours after dissolution. […] The glycine concentration-dependence of compound 1 discoloration was evaluated at […] after dissolution.

[2] = assay type: physicochemical
Description: A, B, and C contain 7.5 mg/mL glycine, equal to 100 mM glycine. D and E have 11.25 mg/mL glycine, equal to 150 mM glycine. F is the control without glycine.

[3] = Effect of storage conditions (light, temperature) on absorbance 400-650 nm; assay type: physicochemical; settings: 2 mg/mL, 0.9% saline
Description: The effect of exposure to light and temperature was evaluated as a function of time for 0.9% saline solutions containing 2 mg/mL compound 1, with or without 10 mM glycine-NaOH buffer, was evaluated by monitoring absorbance at 400, 450, 500, 600, and 650 nm.

[4] = pH studies: chemical (HPLC) and physical (color) stability in water for injection; settings: for Chemical and physical stability: 24 hours
[5] = Glycine concentration and temperature studies: chemical stability (residual potency and impurity levels); assay type: physicochemical
Description: A, B, and C contain 7.5 mg/mL glycine, equal to 100 mM glycine. […] F is the control without glycine.

[6] = Discoloration on reconstitution in aqueous solutions for intravenous administration; assay type: physicochemical; settings: e.g. 5% dextrose or 0.9% saline
Description: It has been found by the present inventors that anti-ulcerative compounds such as compound 1 and the compounds described by general formula I below discolor when they are reconstituted, i.e., dissolved, in aqueous solutions, particularly in solutions suitable for intravenous administration, e.g., 5% dextrose or 0.9% saline. Such solutions quickly turn yellow to yellow-brown.

[7] = Preliminary buffer evaluation (phosphate vs glycine-NaOH); assay type: physicochemical
Description: It is desirable that the pH of solutions of compound 1 and other compounds of the invention in 5% dextrose or normal saline remain in a range near about pH 10 to provide for an acceptable use period in a clinical setting. Phosphate and glycine buffer systems were tested.
Based on this propensity to precipitate, phosphate was disqualified as a buffer for the compounds of the invention.

COCCCOc1ccnc(C[S+]([O-])c2nc3ccccc3[nH]2)c1C (centres unmarked) [compound 1]
Rate of discoloration (absorption) ([1]; 4 mg/mL, 0.9% saline pH 10, 25° C. dark, 0-8 hours, glycine-free vs 50 mM glycine): much greater rate
Difference in absorbance spectrum between glycine concentrations ([1]; 4 mg/mL, 0.9% saline pH 10, 5, 10, 25, 50 mM glycine-NaOH, 5 hours): little difference
Absorbance ([1]; 5 mM glycine-NaOH solution, 5 hours post-dissolution): noticeably higher absorbance
Color formation ([2]; 5° C. compared to room temperature): significantly retarded
Discoloration ([2]; solutions devoid of glycine, regardless of temperature): discolored very quickly
Discoloration ([2]; solutions with greater glycine concentrations): discolored more slowly
Effect of glycine-NaOH buffer on absorption ([3]; 10 mM glycine-NaOH, all wavelengths, temperatures, lighting conditions): decreases absorption
Effect of exposure to light on color development ([3]; with or without 10 mM glycine-NaOH): no detrimental effect
Color development with increasing storage temperature ([3]; without glycine-NaOH buffer): increase in undesirable color development
Order of chemical and physical stability by pH ([4]; 5° C. and room temperature, 8 mg/mL in WFI): pH 11.5>pH 11>pH 10.5>pH 10>pH 9.5
Time until solutions began to assume a yellow color ([4]; pH 9.5, 8 mg/mL in WFI): ≤ 30 min
Chemical and physical stability ([4]; pH 10.5, cold temperatures (5° C.)): adequate
Chemical and physical stability ([4]; pH 10.5, room temperature): marginally stable
Stability for manufacture and handling in preparation for freeze drying ([4]; pH 11 or greater, cold temperatures): adequately stable
Difference in chemical stability between glycine formulations ([5]; 0 mM, 100 mM and 150 mM glycine): No substantial difference
Increase in impurity levels ([5]; 5° C., pH 10.5 to 11, 24 hours): without measurable increases
Impurities measured ([5]; room temperature, pH 10.5, 24 hours): > 1%
Increase in impurities ([5]; room temperature, pH 11 solution, 24 hours): < 0.5%
Color on reconstitution in aqueous solutions [6]: discolor
Color formation ([7]; 50 mM phosphate buffer, compared with unbuffered solutions): color formation was not inhibited
Discoloration ([7]; 100 mM glycine/NaOH, pH above 10): substantially slower
Appearance on reconstitution ([7]; phosphate-containing plugs): hazy solutions
Appearance after freeze-drying ([7]; solutions in phosphate and glycine buffers): white, well-formed plugs
